Results: ChEMBL document CHEMBL4610122, “Synthesis and Structure-Activity Relationships of DCLK1 Kinase Inhibitors Based on a 5,11-Dihydro-6H-benzo[e]pyrimido[5,4-b][1,4]diazepin-6-one Scaffold” (J Med Chem, 2020)
Active and inactive are the calls of the source. No cut-off for these calls is given here.

Key:
[1] = target: T1, Serine/threonine-protein kinase DCLK1 (Homo sapiens, UniProt O15075); test: Inhibition of recombinant human N-terminal His6-tagged DCLK1 (G351 to H689 residues) expressed in Escherichia coli BL21 DE3 using 5-FAM-KKLRRTLSVA-COOH as substrate measured after 2 hrs by mobility shift assay
T1 sequence (O15075 whole entry): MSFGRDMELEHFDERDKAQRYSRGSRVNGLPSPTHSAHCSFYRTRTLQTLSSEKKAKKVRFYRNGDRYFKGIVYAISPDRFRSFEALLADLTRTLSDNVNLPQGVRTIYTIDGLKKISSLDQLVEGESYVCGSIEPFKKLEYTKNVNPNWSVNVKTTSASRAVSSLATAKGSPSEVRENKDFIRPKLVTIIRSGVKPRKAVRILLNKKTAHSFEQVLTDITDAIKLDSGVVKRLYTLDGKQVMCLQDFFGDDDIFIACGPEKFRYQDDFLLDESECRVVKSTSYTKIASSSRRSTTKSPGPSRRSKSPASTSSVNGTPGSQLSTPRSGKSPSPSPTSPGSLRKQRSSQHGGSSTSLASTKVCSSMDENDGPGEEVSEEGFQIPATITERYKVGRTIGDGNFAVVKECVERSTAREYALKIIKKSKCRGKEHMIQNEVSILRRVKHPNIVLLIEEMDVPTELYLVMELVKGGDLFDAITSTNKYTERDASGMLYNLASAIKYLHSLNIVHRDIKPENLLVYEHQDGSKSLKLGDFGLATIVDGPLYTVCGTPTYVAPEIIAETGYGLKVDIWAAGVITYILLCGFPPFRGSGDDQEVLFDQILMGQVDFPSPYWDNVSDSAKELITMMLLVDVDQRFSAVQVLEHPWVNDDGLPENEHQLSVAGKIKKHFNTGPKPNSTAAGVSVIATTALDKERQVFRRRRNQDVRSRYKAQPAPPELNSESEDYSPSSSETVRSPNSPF

[2] = target: Bromodomain-containing protein 4 (Homo sapiens, UniProt O60885); test: Inhibition of BRD4 bromodomain 1 (unknown origin) by AlphaScreen displacement assay
[3] = species: Homo sapiens; test: Cytotoxicity against human Panc286 cell organoids assessed as reduction in cell viability up to 1 uM measured after 4 days; type: functional
[4] = AUC in mouse; type: ADME, organism-based; details: in vivo
[5] = Cytotoxicity against human Panc286 cell organoids assessed as reduction in cell viability at 1 uM measured after 12 days relative to control; type: functional
[6] = Half life in mouse; type: ADME, organism-based; details: in vivo
[7] = species: Homo sapiens; test: Cytotoxicity against human Panc281 cell organoids assessed as reduction in cell viability up to 1 uM measured after 4 days; type: functional
[8] = target: Leucine-rich repeat serine/threonine-protein kinase 2 (Homo sapiens, UniProt Q5S007); test: Inhibition of recombinant human GST-tagged LRRK2 catalytic domain (970 to 2527 residues) expressed in baculovirus expression system using LRRKtide as substrate measured after 1 hr by Alexa fluor-647 ADP tracer-based ADAPTA assay
Sequence of Leucine-rich repeat serine/threonine-protein kinase 2 (Q5S007 whole entry, the tested form may be a part): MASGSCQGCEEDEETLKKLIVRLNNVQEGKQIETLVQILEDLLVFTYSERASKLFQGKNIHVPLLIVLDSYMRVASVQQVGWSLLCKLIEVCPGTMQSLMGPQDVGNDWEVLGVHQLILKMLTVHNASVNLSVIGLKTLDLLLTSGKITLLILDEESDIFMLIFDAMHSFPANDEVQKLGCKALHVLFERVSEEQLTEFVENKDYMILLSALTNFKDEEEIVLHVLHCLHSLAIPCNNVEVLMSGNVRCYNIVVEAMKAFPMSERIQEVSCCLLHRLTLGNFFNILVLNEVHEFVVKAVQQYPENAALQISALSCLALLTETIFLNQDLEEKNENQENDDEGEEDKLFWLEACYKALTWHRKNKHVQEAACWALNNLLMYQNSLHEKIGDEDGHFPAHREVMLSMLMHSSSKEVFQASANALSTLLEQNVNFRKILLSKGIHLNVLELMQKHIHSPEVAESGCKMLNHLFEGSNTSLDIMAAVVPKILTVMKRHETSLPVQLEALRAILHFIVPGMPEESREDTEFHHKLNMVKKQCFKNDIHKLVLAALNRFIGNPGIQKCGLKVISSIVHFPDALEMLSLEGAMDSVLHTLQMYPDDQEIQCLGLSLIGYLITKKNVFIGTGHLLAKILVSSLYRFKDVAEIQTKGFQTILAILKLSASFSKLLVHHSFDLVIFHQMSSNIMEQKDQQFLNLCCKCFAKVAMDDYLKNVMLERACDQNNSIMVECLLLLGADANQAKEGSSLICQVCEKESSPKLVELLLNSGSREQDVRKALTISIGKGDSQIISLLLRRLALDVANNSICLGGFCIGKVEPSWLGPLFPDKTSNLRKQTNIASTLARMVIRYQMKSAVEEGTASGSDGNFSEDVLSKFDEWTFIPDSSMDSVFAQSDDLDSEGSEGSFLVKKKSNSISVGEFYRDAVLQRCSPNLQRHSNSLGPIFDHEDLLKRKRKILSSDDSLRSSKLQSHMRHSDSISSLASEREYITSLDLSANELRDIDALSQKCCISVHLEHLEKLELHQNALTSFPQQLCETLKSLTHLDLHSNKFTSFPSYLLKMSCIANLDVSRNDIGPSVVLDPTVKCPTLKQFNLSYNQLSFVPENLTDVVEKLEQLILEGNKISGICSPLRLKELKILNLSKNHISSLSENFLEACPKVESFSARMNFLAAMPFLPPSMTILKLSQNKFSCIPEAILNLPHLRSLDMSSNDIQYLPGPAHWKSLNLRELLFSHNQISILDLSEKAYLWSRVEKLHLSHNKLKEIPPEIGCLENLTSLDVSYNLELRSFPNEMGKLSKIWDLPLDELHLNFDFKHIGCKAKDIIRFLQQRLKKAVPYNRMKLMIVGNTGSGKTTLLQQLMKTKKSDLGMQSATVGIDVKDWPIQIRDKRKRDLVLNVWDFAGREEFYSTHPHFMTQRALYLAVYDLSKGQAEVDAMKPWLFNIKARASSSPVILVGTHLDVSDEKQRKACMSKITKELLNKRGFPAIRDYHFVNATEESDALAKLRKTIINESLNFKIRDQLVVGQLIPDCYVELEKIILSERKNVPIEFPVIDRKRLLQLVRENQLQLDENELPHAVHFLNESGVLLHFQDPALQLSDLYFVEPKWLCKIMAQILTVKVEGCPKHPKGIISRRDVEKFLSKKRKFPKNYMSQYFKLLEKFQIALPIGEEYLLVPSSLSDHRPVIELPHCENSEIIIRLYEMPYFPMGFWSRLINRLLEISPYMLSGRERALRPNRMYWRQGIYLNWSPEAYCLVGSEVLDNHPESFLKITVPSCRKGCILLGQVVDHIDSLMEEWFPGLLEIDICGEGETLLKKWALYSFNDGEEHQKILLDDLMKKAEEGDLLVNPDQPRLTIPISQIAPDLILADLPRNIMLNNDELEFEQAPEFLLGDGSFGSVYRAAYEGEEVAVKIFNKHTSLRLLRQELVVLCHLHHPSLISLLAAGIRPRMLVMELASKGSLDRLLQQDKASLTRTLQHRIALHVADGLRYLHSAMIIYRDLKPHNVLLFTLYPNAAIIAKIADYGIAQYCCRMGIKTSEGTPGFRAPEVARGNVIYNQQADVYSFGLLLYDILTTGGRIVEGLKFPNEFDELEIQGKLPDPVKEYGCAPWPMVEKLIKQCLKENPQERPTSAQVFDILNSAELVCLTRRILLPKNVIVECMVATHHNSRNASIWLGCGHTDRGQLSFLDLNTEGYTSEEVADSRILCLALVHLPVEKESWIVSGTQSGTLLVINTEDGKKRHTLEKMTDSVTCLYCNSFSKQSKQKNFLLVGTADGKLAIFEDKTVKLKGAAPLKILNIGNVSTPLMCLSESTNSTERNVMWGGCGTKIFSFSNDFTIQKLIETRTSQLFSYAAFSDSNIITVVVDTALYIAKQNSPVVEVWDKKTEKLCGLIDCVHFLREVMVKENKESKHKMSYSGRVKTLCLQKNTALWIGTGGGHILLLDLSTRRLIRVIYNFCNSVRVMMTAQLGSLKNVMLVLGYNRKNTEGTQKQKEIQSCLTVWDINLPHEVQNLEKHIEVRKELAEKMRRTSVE

[9] = Cytotoxicity against human Panc281 cell organoids assessed as reduction in cell viability at 1 uM measured after 12 days relative to control; type: functional
[10] = target: Mitogen-activated protein kinase 7 (Homo sapiens, UniProt Q13164); test: Inhibition of ERK5 in human HeLa cells assessed as reduction in EGF-induced ERK5 autophosphorylation pretreated for 1 hr followed by EGF stimulation and measured after 17 mins by […]; type: cell-based
Sequence of Mitogen-activated protein kinase 7 (Q13164 whole entry): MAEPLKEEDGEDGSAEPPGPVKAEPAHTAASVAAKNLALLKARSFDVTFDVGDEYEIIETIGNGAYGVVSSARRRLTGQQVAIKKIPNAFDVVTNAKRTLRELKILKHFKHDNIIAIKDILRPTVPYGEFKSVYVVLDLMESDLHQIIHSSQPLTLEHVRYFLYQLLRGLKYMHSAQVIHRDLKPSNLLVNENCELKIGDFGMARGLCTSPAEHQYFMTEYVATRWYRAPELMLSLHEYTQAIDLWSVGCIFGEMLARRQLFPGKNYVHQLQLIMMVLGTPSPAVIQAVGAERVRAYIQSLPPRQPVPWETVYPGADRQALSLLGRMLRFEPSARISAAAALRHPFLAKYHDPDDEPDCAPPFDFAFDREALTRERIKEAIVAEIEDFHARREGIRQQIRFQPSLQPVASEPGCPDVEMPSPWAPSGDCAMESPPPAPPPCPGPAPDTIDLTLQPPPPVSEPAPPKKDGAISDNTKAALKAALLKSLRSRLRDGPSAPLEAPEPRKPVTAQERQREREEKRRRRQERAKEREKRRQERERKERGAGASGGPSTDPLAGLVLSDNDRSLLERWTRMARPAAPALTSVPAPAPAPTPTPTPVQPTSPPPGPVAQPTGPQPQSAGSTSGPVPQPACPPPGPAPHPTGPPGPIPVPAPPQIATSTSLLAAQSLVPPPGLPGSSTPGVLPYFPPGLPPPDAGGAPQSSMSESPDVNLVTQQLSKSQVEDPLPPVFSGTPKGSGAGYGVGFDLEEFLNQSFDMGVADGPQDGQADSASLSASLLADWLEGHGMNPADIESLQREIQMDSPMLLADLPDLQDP

[11] = Clearance in mouse; type: ADME, organism-based; details: in vivo

| Structure (SMILES) | IC50 [1] [µM] | IC50 [2] [µM] | IC50 [8] [µM] | also measured |
| --- | --- | --- | --- | --- |
| CN1C(=O)c2ccccc2N(C)c2nc(Nc3ccc(NS(C)(=O)=O)cc3)ncc21 | 0.002 |  |  |  |
| COc1cc(N2CCN(C)CC2)ccc1Nc1ncc2c(n1)N(C)c1ccccc1C(=O)N2CC(F)(F)F | 0.017 | > 10 | 7 | Activity [3]: inactive; AUC [4]: 1.27 µg·h/mL; Activity [5]: >=50 - 90%; t1/2 [6]: 2.09 h; Activity [7]: inactive; Activity [9]: >=50 - 90%; IC50 ([10]; hela): 3.35 µM; clearance [11]: 1.58 L/h/kg |
| COc1cc(N2CCN(C)CC2)ccc1Nc1ncc2c(n1)N(C(C)C)c1ccccc1C(=O)N2C | 0.071 |  | 0.289 |  |
| COc1cc(NS(C)(=O)=O)ccc1Nc1ncc2c(n1)N(C)c1ccccc1C(=O)N2CC(F)(F)F | 0.08 | > 10 | 8.89 |  |
| COc1cc(C(=O)N2CCN(C3CCN(C)CC3)CC2)ccc1Nc1ncc2c(n1)N(C)c1ccccc1C(=O)N2C |  |  | 0.005 |  |
| CN1C(=O)c2ccccc2N(C)c2nc(Nc3cccc(S(N)(=O)=O)c3)ncc21 | 0.111 |  | 0.0061 |  |
| COc1cc(N2CCN(C)CC2)ccc1Nc1ncc2c(n1)N(C)c1ccccc1C(=O)N2C | 0.011 to 0.016 | 0.888 | 0.029 |  |
| COc1cc(N2CCN(C)CC2)ccc1Nc1nc(C)c2c(n1)N(C)c1ccccc1C(=O)N2C | > 2 |  | 0.501 | IC50 [10]: > 10 µM |
| COc1cc(N2CCN(C)CC2)ccc1Nc1ncc2c(n1)N(Cc1ccccc1)c1ccccc1C(=O)N2C | 0.004 |  | 0.141 |  |
| CCN1C(=O)c2ccccc2N(C)c2nc(Nc3ccc(N4CCN(C)CC4)cc3OC)ncc21 | 0.003 | 0.83 | 0.062 | IC50 [10]: 1.2 µM |
| CCOc1cc(N2CCC(O)CC2)ccc1Nc1ncc2c(n1)N(C)c1ccccc1C(=O)N2C | 0.716 |  | 0.046 |  |
| CCN1C(=O)c2ccccc2N(C)c2nc(Nc3ccc(C(=O)NC4CCN(C)CC4)cc3OC)ncc21 | 0.002 | 0.52 | 0.014 | IC50 [10]: 0.482 µM |
| CCN1c2ccccc2C(=O)N(C)c2cnc(Nc3ccc(N4CCN(C)CC4)cc3OC)nc21 | 0.154 |  | 0.057 |  |
| CN1C(=O)c2ccccc2N(C)c2nc(Nc3ccc(N4CCC(O)CC4)cc3)ncc21 | 0.109 |  | 0.03 |  |
| COc1cc(N2CCN(C)CC2)ccc1Nc1ncc2c(n1)N(C)c1ccccc1C(=O)N2 | > 1 | > 10 | 0.07 | IC50 [10]: 1.2 µM |
| COc1cc(N2CCN(C)CC2)ccc1Nc1ncc2c(n1)N(C1CCCC1)c1ccccc1C(=O)N2C | 0.026 |  | 0.421 |  |
| COc1cc(N2CCN(C)CC2)ccc1Nc1ncc2c(n1)N(C)c1ccc(Cl)cc1C(=O)N2C | > 2 |  | 1.33 |  |
| COc1cc(C(=O)NC2CCN(C)CC2)ccc1Nc1ncc2c(n1)N(C)c1ccccc1C(=O)N2C | 0.001 to 0.004 | 4.17 | 0.0082 to 0.018 |  |
| COc1cc(N2CCN(C)CC2)ccc1Nc1ncc2c(n1)N(C)c1ccc(C)cc1C(=O)N2C | > 2 |  | 0.928 |  |

| Structure (SMILES) | IC50 [1] [µM] | IC50 [2] [µM] | IC50 [8] [µM] | also measured |
| --- | --- | --- | --- | --- |
| COc1cc(NS(C)(=O)=O)ccc1Nc1ncc2c(n1)N(C)c1ccccc1C(=O)N2C | 0.003 to 0.016 | 0.125 | 0.0059 to 0.006 | IC50 [10]: 0.276 µM |
| COc1cc(NS(C)(=O)=O)ccc1Nc1ncc2c(n1)N(C)c1ccccc1C(=O)N2C(C)C | > 1 | 7.49 | 0.683 |  |
| CCC(C)N1c2ccccc2C(=O)N(C)c2cnc(Nc3ccc(N4CCN(C)CC4)cc3OC)nc21 (stereo not given) | 0.032 |  | 0.743 | IC50 [10]: 0.222 µM |
| CN1C(=O)c2ccccc2N(C)c2nc(Nc3ccc(S(N)(=O)=O)cc3)ncc21 | 0.187 |  | 0.007 |  |
| COc1cc(N2CCN(C)CC2)ccc1Nc1ncc2c(n1)N(C)c1cc(Cl)ccc1C(=O)N2C | > 2 |  | 3.74 |  |
| COc1cc(N2CCN(C)CC2)ccc1Nc1ncc2c(n1)N(C)c1ccc(C)cc1C(=O)N2CC(F)(F)F | > 5 |  |  |  |
| COc1cc(N2CCN(C)CC2)ccc1Nc1ncc2c(n1)N(C)c1ccccc1C(=O)N2C(C)C | 0.411 | 1.2 | 1.9 |  |
| CCN1C(=O)c2ccccc2N(C)c2nc(Nc3ccc(NS(C)(=O)=O)cc3OC)ncc21 | 0.036 | 4.6 | 0.023 |  |
| COc1cc(N2CCN(C)CC2)ccc1Nc1ncc2c(n1)N(C1CCC1)c1ccccc1C(=O)N2C | 0.014 |  | 0.097 | IC50 [10]: 0.079 µM |
| CC(C)Oc1cc(N2CCC(O)CC2)ccc1Nc1ncc2c(n1)N(C)c1ccccc1C(=O)N2C | 0.51 |  | 0.16 |  |
| COc1cc(C(=O)NC2CCN(C)CC2)ccc1Nc1ncc2c(n1)N(C)c1ccccc1C(=O)N2CC(F)(F)F | 0.01 | 1.57 | 0.378 |  |
| COc1cc(N2CCOCC2)ccc1Nc1ncc2c(n1)N(C)c1ccccc1C(=O)N2C | 0.011 |  | 0.031 |  |
| CCOc1cc(C(=O)N2CCC(N3CCN(C)CC3)CC2)ccc1Nc1ncc2c(n1)N(C1CCCC1)c1ccccc1C(=O)N2C | 0.022 |  | 0.171 |  |
| CC(C)Oc1cc(N2CCN(C)CC2)ccc1Nc1ncc2c(n1)N(C)c1ccccc1C(=O)N2CC(F)(F)F | 0.214 |  |  |  |
| COc1cc(N2CCC(O)CC2)ccc1Nc1ncc2c(n1)N(C)c1ccccc1C(=O)N2C | 0.097 |  | 0.0141 |  |
| COc1cc(N2CCNCC2)ccc1Nc1ncc2c(n1)N(C)c1ccccc1C(=O)N2C | 0.052 |  | 0.023 |  |
| COc1cc(C(=O)NC2CCN(C)CC2)ccc1Nc1ncc2c(n1)N(C)c1ccccc1C(=O)N2C(C)C | 0.126 | 2.38 | 0.331 |  |
| Cc1cc(N2CCC(O)CC2)ccc1Nc1ncc2c(n1)N(C)c1ccccc1C(=O)N2C | 0.037 |  | 0.035 |  |
| COc1cc(N2CCN(C3CCN(C)CC3)CC2)ccc1Nc1ncc2c(n1)N(C)c1ccccc1C(=O)N2C | 0.104 |  | 0.016 |  |
